Counter-ions that a name gives are not always drawn.
Experiments:
[1] = target: T1, norepinephrine transporter (Rattus norvegicus, UniProt Q9WTR4); test: [3H]nisoxetine displacement at norepinephrine transport sites, rat forebrain membranes; assay type: binding; details: NE (Ki, nM), displacement of 0.7 nM [3H]nisoxetine
T1 construct: tissue Pel-Freez, Rogers, AR; host or cells: rat forebrain membranes
Experimental: (§1) For this Example, binding of at biogenic amine transporters was determined using striatum and frontal cortex dissected from frozen Sprague-Dawley rat brains (Pel-Freez, Rogers, AR). Affinities of analogs at dopamine transport sites were determined by displacement of [^125I]RTI-55 binding in membranes from rat striatum, using 0.5 mg (original wet weight) of membranes and 10 pM [^125]RTI-55. Non-specific binding was determined in the presence of 1 μM WF-23 (analog 3a). Affinities of analogs at 5-HT transport sites were determined by displacement of [^3H] paroxetine binding in membranes from rat frontal cortex, using 50 mg (original wet weight) of membranes and 0.4 nM [^3H]paroxetine. Non-specific binding was determined in the presence of 10 μM fluoxetine. Binding of analogs at norepinephrine transport sites was determined by displacement of [^3H]nisoxetine binding in membranes from rat forebrain, using 0.7 nM [^3H]nisoxetine. Non-specific binding was determined in the presence of 1 μM desipramine.
(§2) Potencies were calculated from displacement curves using 7-10 concentrations of unlabeled analogs, as analyzed by non-linear curve fitting. Because binding of tropanes at dopamine transporters is generally regarded as multiphasic,^3 potencies in inhibiting [^125I]RTI-55 binding are reported as IC50 values. For [^3H]paroxetine and [^3H]nisoxetine binding assays, Ki values were calculated using the Cheng-Prusoff equation. All data are mean values±S.E.M. of at least three separate experiments, each of which was conducted in triplicate.
(§3) The binding affinities to dopamine (DA), serotonin (5-HT), and norepinephrine (NE) transporters for the series of compounds (4) are presented in Table 1.

5-HT transporter = target: T2, 5-HT transporter (Rattus norvegicus, UniProt P31652); test: [3H]paroxetine displacement at 5-HT transport sites, rat frontal cortex membranes; assay type: binding
T2 construct: tissue Pel-Freez, Rogers, AR; host or cells: rat frontal cortex membranes
T2 sequence (P31652 whole entry): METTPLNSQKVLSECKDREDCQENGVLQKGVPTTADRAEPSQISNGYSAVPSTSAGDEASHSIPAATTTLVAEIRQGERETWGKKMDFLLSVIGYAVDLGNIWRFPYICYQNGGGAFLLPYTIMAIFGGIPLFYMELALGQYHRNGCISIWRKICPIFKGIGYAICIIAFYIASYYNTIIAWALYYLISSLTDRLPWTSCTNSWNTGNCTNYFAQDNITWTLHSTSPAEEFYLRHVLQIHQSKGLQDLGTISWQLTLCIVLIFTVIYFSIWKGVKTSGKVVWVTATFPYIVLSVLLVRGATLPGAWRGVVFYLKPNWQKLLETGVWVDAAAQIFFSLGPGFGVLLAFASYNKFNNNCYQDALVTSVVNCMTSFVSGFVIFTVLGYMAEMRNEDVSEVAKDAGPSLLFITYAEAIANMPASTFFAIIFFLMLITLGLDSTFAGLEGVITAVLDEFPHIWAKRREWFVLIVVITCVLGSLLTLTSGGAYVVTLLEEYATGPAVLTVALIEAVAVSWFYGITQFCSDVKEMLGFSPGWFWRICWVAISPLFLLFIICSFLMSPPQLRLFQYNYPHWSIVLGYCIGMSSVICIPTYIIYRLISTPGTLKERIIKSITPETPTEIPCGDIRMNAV
Experimental: as §1, §2, §3

dopamine transporter = target: T3, dopamine transporter (Rattus norvegicus, UniProt P23977); test: [125I]RTI-55 displacement at dopamine transport sites, rat striatum membranes; assay type: binding; details: DA (IC50, nM), displacement of 10 pM [125I]RTI-55, rat striatum
T3 construct: tissue Pel-Freez, Rogers, AR; host or cells: rat striatum membranes
T3 sequence (P23977 whole entry): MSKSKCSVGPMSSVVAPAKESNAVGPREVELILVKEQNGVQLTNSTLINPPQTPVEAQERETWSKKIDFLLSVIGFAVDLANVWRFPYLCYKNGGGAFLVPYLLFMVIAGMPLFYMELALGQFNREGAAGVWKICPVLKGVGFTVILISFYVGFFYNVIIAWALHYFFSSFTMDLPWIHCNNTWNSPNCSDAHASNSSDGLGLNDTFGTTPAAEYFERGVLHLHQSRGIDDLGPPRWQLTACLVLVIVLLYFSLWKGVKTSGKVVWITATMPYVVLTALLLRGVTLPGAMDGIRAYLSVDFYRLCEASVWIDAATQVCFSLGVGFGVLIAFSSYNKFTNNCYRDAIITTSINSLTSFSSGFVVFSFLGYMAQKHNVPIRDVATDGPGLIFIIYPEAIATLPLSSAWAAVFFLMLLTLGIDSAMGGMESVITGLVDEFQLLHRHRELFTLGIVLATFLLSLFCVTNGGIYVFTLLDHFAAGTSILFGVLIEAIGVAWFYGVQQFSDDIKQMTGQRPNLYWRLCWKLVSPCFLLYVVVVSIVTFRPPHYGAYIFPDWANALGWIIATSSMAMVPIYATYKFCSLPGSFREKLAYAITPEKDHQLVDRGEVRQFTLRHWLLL
Experimental: as §1, §2, §3

ckr mouse = test: Hyperactivity and circling in ckr mice (model validation); assay type: in vivo; details: rate of hyperactivity and circling after administration, concentrations relevant to human clinical use
Experimental: The mouse also presents lateral ventricular enlargement, which may mirror neuropathological observations in shizophrenia. […] We have further validated this model by testing risperidone, clozapine, haloperidol and pimozide in the ckr mouse. The behavioral output was assayed by measuring the rate of hyperactivity and circling after administration.

T1 sequence (Q9WTR4 1-597): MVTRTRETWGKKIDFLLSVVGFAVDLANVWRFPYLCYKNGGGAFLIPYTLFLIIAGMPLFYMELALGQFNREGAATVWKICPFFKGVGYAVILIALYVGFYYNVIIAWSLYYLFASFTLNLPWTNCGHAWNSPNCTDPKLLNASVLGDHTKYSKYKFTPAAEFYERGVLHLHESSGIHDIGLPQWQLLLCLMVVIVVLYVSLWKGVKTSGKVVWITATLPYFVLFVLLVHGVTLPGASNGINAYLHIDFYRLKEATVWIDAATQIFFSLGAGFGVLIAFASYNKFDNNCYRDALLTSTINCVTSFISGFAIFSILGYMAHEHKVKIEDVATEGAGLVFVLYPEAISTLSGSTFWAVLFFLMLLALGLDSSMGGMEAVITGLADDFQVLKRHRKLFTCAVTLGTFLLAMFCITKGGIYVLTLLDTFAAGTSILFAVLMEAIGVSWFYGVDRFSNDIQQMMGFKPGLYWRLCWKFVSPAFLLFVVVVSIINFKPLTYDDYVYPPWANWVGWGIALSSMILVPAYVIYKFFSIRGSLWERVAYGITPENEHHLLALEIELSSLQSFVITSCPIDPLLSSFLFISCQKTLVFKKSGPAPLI

| Compound | Ki [1] | Ki (5-HT transporter) | IC50 (dopamine transporter) | hyperactivity in ckr mice (ckr mouse) |
| --- | --- | --- | --- | --- |
| COC(=O)C(c1ccc(Cl)c(Cl)c1)C1C=CCCN1 [(2S,2′R)-4d] | 193 nM | > 10000 nM | 329 nM | – |
| COC(=O)C(c1ccc(Br)cc1)C1C=CCCN1 (racemic) [(±)-4b] | – | – | 6020 nM | – |
| COC(=O)[C@H](c1ccc2ccccc2c1)[C@@H]1C=CCCN1 [(2R,2′S)-4f] | 323 nM | 608 nM | 547 nM | – |
| COC(=O)[C@@H](c1ccc2ccccc2c1)[C@H]1C=CCCN1 [(2S,2′R)-4f] | 800 nM | 1960 nM | 864 nM | – |
| COC(=O)C(c1ccc(Cl)c(Cl)c1)C1C=CCCN1 [(2R,2′S)-4d] | 109 nM | – | 216 nM | – |
| COC(=O)C(c1ccc(Cl)cc1)C1C=CCCN1 (racemic) [(±)-4c] | 1910 nM | > 10000 nM | 6380 nM | – |
| Cc1nc2n(c(=O)c1CCN1CCC(c3noc4cc(F)ccc34)CC1)CCCC2 [risperidone] | – | – | – | dose-dependent attenuation of hyperactivity |
| COC(=O)[C@@H](c1ccc(Br)cc1)[C@H]1C=CCCN1 [(2S,2′R)-4b, (S)-Methyl 2-(4-bromophenyl)-2-((R)-1,2,5,6-tetrahydropyridin-2-yl)acetate hydrochloride] | – | – | 5340 nM | – |
| COC(=O)[C@@H](c1ccc(Cl)cc1)[C@H]1C=CCCN1 [(2S,2′R)-4c] | 391 nM | > 10000 nM | 5370 nM | – |
| COC(=O)[C@H](c1ccc(Br)cc1)[C@@H]1C=CCCN1 [(2R,2′S)-4b] | – | – | 5590 nM | – |
| O=C(CCCN1CCC(O)(c2ccc(Cl)cc2)CC1)c1ccc(F)cc1 [haloperidol] | – | – | – | dose-dependent attenuation of hyperactivity |
| COC(=O)C(c1ccc2ccccc2c1)C1C=CCCN1 (racemic) [(±)-4f] | 1190 nM | 1200 nM | 496 nM | – |
| COC(=O)[C@H](c1ccc(Cl)cc1)[C@@H]1C=CCCN1 [(2R,2′S)-4c] | 3310 nM | > 10000 nM | 5030 nM | – |
